Source: patent US10793568B2, “Hormone receptor modulators for treating metabolic conditions and disorders” (ARDELYX, INC., priority 2016, dated 2020)

What was measured:
[1] = target: human Farnesoid X receptor ligand-binding domain/Gal4 DNA binding domain chimera (Homo sapiens (Human), UniProt Q96RI1); assay: Cell-based assay of FXR activation (FXR-UAS-bla HEK 293T beta-lactamase reporter); details: cellular FXR beta-lactamase reporter assay; for Emax: HEK-293T, extent of activation relative to GW4064, read-out: % Efficacy; for EC50: FXR-UAS-bla HEK 293T cells, 16 h, pEC50 = -log EC50
Method in brief: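 HEK 293T cells stably expressing a Gal4-fused human FXR LBD and a UAS-driven beta-lactamase reporter were incubated with serially diluted compounds for 16 h at 37 °C in phenol red-free DMEM with 2% charcoal-stripped FBS. CCF4 FRET read-out: excitation 409 nm, emission 447 nm. pEC50 comes from a 3-parameter logistic fit, and efficacy is given as % of GW4064.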

[2] = target: ligand binding domain of human FXR (Homo sapiens (Human), UniProt Q96RI1); assay: FXR ligand binding assay (LanthaScreen TR-FRET, SRC2-2 peptide recruitment); details: for pEC50: -log EC50, concentration required to produce 50% activation; for Emax: extent of activation relative to GW4064, read-out: % Efficacy
Sequence of ligand binding domain of human FXR (Q96RI1 262-486): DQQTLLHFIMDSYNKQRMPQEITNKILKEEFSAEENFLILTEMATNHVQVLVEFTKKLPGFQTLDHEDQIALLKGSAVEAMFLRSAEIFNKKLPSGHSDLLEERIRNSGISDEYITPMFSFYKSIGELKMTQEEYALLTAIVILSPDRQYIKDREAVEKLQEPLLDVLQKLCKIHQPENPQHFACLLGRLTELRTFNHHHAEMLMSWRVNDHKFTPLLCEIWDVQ

Sequence of human Farnesoid X receptor ligand-binding domain/Gal4 DNA binding domain chimera (Q96RI1 262-486, change not shown): as the sequence (Q96RI1 262-486) above
Sequence of human Farnesoid X receptor ligand-binding domain/Gal4 DNA binding domain chimera (P04386 1-147 partner): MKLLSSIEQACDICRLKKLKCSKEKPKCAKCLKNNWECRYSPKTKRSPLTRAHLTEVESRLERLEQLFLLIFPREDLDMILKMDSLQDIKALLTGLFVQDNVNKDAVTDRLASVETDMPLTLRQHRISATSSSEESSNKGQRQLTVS

**Q.** Which Emax [1] does the source give for O=C(O)c1ccc(N2C[C@@H]3C[C@H]2C[C@H]3OCc2c(-c3c(Cl)cccc3Cl)noc2C2(F)CC2)c(F)c1 [Compound I-57, 4-[(1S,4S,5R)-5-{[3-(2,6-dichlorophenyl)-5-(1-fluorocyclopropyl)-1,2-oxazol-4-yl]methoxy}-2-azabicyclo[2.2.1]heptan-2-yl]-3-fluorobenzoic Acid] here?
**A.** 109%

**Q.** And the EC50 [1]?
**A.** 1 nM

**Q.** What about the pEC50 [2] of the same compound?
**A.** 7.9

**Q.** And the Emax [2]?
**A.** 146%

**Q.** O=C(O)c1ccc2nc(N3C[C@@H]4C[C@H]3C[C@@H]4OC(=O)c3c(-c4c(Cl)cccc4Cl)noc3C3CC3)sc2c1 [Compound I-35, 2-[(1S,4S,5S)-5-[5-cyclopropyl-3-(2,6-dichlorophenyl)-1,2-oxazole-4-carbonyloxy]-2-azabicyclo[2.2.1]heptan-2-yl]-1,3-benzothiazole-6-carboxylic Acid] was tested. Which Emax [1] did it give?
**A.** 19%

**Q.** And the EC50 [1]?
**A.** 631 nM

**Q.** What about the pEC50 [2] of the same compound?
**A.** >4.5

**Q.** O=C(O)c1ccc(N2C[C@@H]3C[C@H]2C[C@H]3OCc2c(-c3c(Cl)cccc3Cl)noc2C2CC2)c(C2CC2)c1 [Compound I-108, 3-cyclopropyl-4-((1S,4S,5R)-5-((5-cyclopropyl-3-(2,6-dichlorophenyl)isoxazol-4-yl)methoxy)-2-azabicyclo[2.2.1]heptan-2-yl)benzoic acid] was tested. Which Emax [1] did it give?
**A.** 101%

**Q.** What about the EC50 [1] of the same compound?
**A.** 3.98 nM

**Q.** What about the pEC50 [2] of the same compound?
**A.** 9.1

**Q.** What about the Emax [2] of the same compound?
**A.** 117%

**Q.** With O=C(O)c1ccc(N2C(=O)[C@@H]3C[C@H]2C[C@@H]3OCc2c(-c3c(Cl)cccc3Cl)noc2C2CC2)cc1 [Compound I-245, 4-[(1S,4R,5S)-5-{[5-cyclopropyl-3-(2,6-dichlorophenyl)-1,2-oxazol-4-yl]methoxy}-3-oxo-2-azabicyclo[2.2.1]heptan-2-yl]benzoic Acid] as the compound, how does the Emax [1] read?
**A.** 0%

**Q.** What about the EC50 [1] of the same compound?
**A.** < 31.6 nM

**Q.** What about the pEC50 [2] of the same compound?
**A.** >5.5

**Q.** O=C(O)CCc1ccc(N2C[C@@H]3C[C@H]2C[C@H]3OCc2c(-c3c(Cl)cccc3Cl)noc2C2CC2)cc1F [Compound I-155, 3-{4-[(1S,4S,5R)-5-{[5-cyclopropyl-3-(2,6-dichlorophenyl)-1,2-oxazol-4-yl]methoxy}-2-azabicyclo[2.2.1]heptan-2-yl]-2-fluorophenyl}propanoic Acid] was tested. Which Emax [1] did it give?
**A.** 102%

**Q.** And the EC50 [1]?
**A.** 1 nM

**Q.** What about the pEC50 [2] of the same compound?
**A.** 8.3

**Q.** What about the Emax [2] of the same compound?
**A.** 136%

**Q.** Which results are given for O=C(O)c1cc(C2CC3(CCOCC3)C2)c2nc(N3C[C@@H]4C[C@H]3C[C@H]4OCc3c(-c4c(Cl)cccc4Cl)noc3C3CC3)sc2c1 [Compound I-257, 2-[(1S,4S,5R)-5-{[5-cyclopropyl-3-(2,6-dichlorophenyl)-1,2-oxazol-4-yl]methoxy}-2-azabicyclo[2.2.1]heptan-2-yl]-4-{7-oxaspiro[3.5]nonan-2-yl}-1,3-benzothiazole-6-carboxylic Acid]?
**A.** Emax [1]: 108%; EC50 [1]: 0.1 nM; pEC50 [2]: 8.6; Emax [2]: 148%

**Q.** With O=C(NS(=O)(=O)CC1CCOC1)c1ccc(N2C(=O)[C@@H]3C[C@H]2C[C@H]3OCc2c(-c3c(Cl)cccc3Cl)noc2C2CC2)cc1 (stereo partly drawn) [Compound I-341, 4-((1S,4R,5R)-5-((5-cyclopropyl-3-(2,6-dichlorophenyl)isoxazol-4-yl)methoxy)-3-oxo-2-azabicyclo[2.2.1]heptan-2-yl)-N-(((tetrahydrofuran-3-yl)methyl)sulfonyl)benzamide] as the compound, how does the Emax [1] read?
**A.** 109%

**Q.** And the EC50 [1]?
**A.** 10 nM

**Q.** And the pEC50 [2]?
**A.** 8.7

**Q.** And the Emax [2]?
**A.** 164%

**Q.** Which results are given for O=C(O)c1cc(F)c2nc(N3C[C@@H]4C[C@H]3C[C@H]4OC(=O)c3c(-c4c(Cl)cccc4Cl)noc3C3CC3)sc2c1 [Compound I-1, 2-[(1S,4S,5R)-5-[5-cyclopropyl-3-(2,6-dichlorophenyl)-1,2-oxazole-4-carbonyloxy]-2-azabicyclo[2.2.1]heptan-2-yl]-4-fluoro-1,3-benzothiazole-6-carboxylic Acid]?
**A.** Emax [1]: 126%; EC50 [1]: 10 nM; pEC50 [2]: 7.4; Emax [2]: 148%

**Q.** Which Emax [1] does the source give for O=C(O)CCc1ccc(N2C(=O)[C@@H]3C[C@H]2C[C@H]3OCc2c(-c3c(Cl)cccc3Cl)noc2C2CC2)cc1 [Compound I-303, 3-{4-[(1S,4R,5R)-5-{[5-cyclopropyl-3-(2,6-dichlorophenyl)-1,2-oxazol-4-yl]methoxy}-3-oxo-2-azabicyclo[2.2.1]heptan-2-yl]phenyl}propanoic Acid] here?
**A.** 98%

**Q.** And the EC50 [1]?
**A.** 6.31 nM

**Q.** And the pEC50 [2]?
**A.** 7.4

**Q.** What about the Emax [2] of the same compound?
**A.** 132%

**Q.** How did the Emax [1] turn out when O=C(NS(=O)(=O)C1CC1)c1ccc(N2C[C@@H]3C[C@H]2C[C@H]3OCc2c(C3CCC4(CC3)CC4)noc2C2CC2)c(F)c1 [Compound I-229, 4-((1S,4S,5R)-5-((5-cyclopropyl-3-(spiro[2.5]octan-6-yl)isoxazol-4-yl)methoxy)-2-azabicyclo[2.2.1]heptan-2-yl)-N-(cyclopropylsulfonyl)-3-fluorobenzamide] was run?
**A.** 101%

**Q.** What about the EC50 [1] of the same compound?
**A.** 39.8 nM

**Q.** What about the pEC50 [2] of the same compound?
**A.** 7.4

**Q.** And the Emax [2]?
**A.** 150%

**Q.** What does the source list for Cc1cccc(Cl)c1-c1noc(C2CC2)c1CO[C@@H]1C[C@@H]2C[C@H]1CN2c1nc2c([C@H]3CCOC3)cc(C(=O)O)cc2s1 [Compound I-272, 2-((1S,4S,5R)-5-((3-(2-chloro-6-methylphenyl)-5-cyclopropylisoxazol-4-yl)methoxy)-2-azabicyclo[2.2.1]heptan-2-yl)-4-((R)-tetrahydrofuran-3-yl)benzo[d]thiazole-6-carboxylic Acid]?
**A.** Emax [1]: 105%; EC50 [1]: 0.501 nM; pEC50 [2]: 8.4; Emax [2]: 132%

**Q.** With O=C(CCc1ccc(N2C[C@@H]3C[C@H]2C[C@H]3OCc2c(-c3c(Cl)cccc3Cl)noc2C2CC2)c(F)c1)OCCN(CCO)CCO [Compound I-163, 2-[bis(2-hydroxyethyl)amino]ethyl 3-{4-[(1S,4S,5R)-5-{[5-cyclopropyl-3-(2,6-dichlorophenyl)-1,2-oxazol-4-yl]methoxy}-2-azabicyclo[2.2.1]heptan-2-yl]-3-fluorophenyl}propanoate] as the compound, how does the Emax [1] read?
**A.** 99%

**Q.** And the EC50 [1]?
**A.** 1.26 nM

**Q.** And the pEC50 [2]?
**A.** 7.5

**Q.** And the Emax [2]?
**A.** 154%

**Q.** O=C(NS(=O)(=O)C1CC1)c1ccc(N2C[C@@H]3C[C@H]2C[C@H]3OC(=O)c2c(-c3c(Cl)cccc3Cl)noc2C2(F)CC2)c(F)c1 [Compound I-199, (1S,4S,5R)-2-(4-((cyclopropylsulfonyl)carbamoyl)-2-fluorophenyl)-2-azabicyclo[2.2.1]heptan-5-yl 3-(2,6-dichlorophenyl)-5-(1-fluorocyclopropyl)isoxazole-4-carboxylate] was tested. Which Emax [1] did it give?
**A.** 110%

**Q.** And the EC50 [1]?
**A.** 10 nM

**Q.** And the pEC50 [2]?
**A.** 7.4

**Q.** And the Emax [2]?
**A.** 146%

**Q.** With Cc1cc(C(=O)O)ccc1N1C[C@@H]2C[C@H]1C[C@H]2OCc1c(-c2c(Cl)cccc2Cl)noc1C1CC1 [Compound I-107, 4-((1S,4S,5R)-5-((5-cyclopropyl-3-(2,6-dichlorophenyl)isoxazol-4-yl)methoxy)-2-azabicyclo[2.2.1]heptan-2-yl)-3-methylbenzoic acid] as the compound, how does the Emax [1] read?
**A.** 102%

**Q.** And the EC50 [1]?
**A.** 1 nM

**Q.** What about the pEC50 [2] of the same compound?
**A.** 8.6

**Q.** And the Emax [2]?
**A.** 122%

**Q.** How did the Emax [1] turn out when O=C(O)c1c(F)cc(N2C[C@@H]3C[C@H]2C[C@H]3OCc2c(-c3c(Cl)cccc3Cl)noc2C2CC2)cc1F [Compound I-104, 4-[(1S,4S,5R)-5-{[5-cyclopropyl-3-(2,6-dichlorophenyl)-1,2-oxazol-4-yl]methoxy}-2-azabicyclo[2.2.1]heptan-2-yl]-2,6-difluorobenzoic Acid] was run?
**A.** 104%

**Q.** What about the EC50 [1] of the same compound?
**A.** 3.16 nM

**Q.** And the pEC50 [2]?
**A.** 9.4

**Q.** What about the Emax [2] of the same compound?
**A.** 156%

**Q.** O=C(O)c1cc(F)c2nc(N3C[C@@H]4C[C@H]3C[C@@H]4OCc3c(-c4c(Cl)cccc4Cl)noc3C3CC3)sc2c1 [Compound I-37, 2-[(1S,4S,5S)-5-{[5-cyclopropyl-3-(2,6-dichlorophenyl)-1,2-oxazol-4-yl]methoxy}-2-azabicyclo[2.2.1]heptan-2-yl]-4-fluoro-1,3-benzothiazole-6-carboxylic Acid] was tested. Which Emax [1] did it give?
**A.** 82%

**Q.** And the EC50 [1]?
**A.** 1580 nM

**Q.** What about the pEC50 [2] of the same compound?
**A.** >4.5

**Q.** And the Emax [2]?
**A.** 0%

**Q.** How did the Emax [1] turn out when O=C(O)c1cc([C@@H]2CCOC2)c2nc(N3C[C@@H]4C[C@H]3C[C@H]4OCc3c(-c4c(Cl)cccc4Cl)noc3C3CC3)sc2c1 [Compound I-252, 2-[(1S,4S,5R)-5-{[5-cyclopropyl-3-(2,6-dichlorophenyl)-1,2-oxazol-4-yl]methoxy}-2-azabicyclo[2.2.1]heptan-2-yl]-4-[(3S)-oxolan-3-yl]-1,3-benzothiazole-6-carboxylic Acid] was run?
**A.** 107%

**Q.** And the EC50 [1]?
**A.** 0.2 nM

**Q.** What about the pEC50 [2] of the same compound?
**A.** 8.6

**Q.** And the Emax [2]?
**A.** 135%

**Q.** Which EC50 [1] does the source give for O=S(=O)(O)c1ccc(N2C[C@@H]3C[C@H]2C[C@H]3OCc2c(-c3c(Cl)cccc3Cl)noc2C2CC2)cc1 [Compound I-144, 4-[(1S,4S,5R)-5-{[5-cyclopropyl-3-(2,6-dichlorophenyl)-1,2-oxazol-4-yl]methoxy}-2-azabicyclo[2.2.1]heptan-2-yl]benzene-1-sulfonic Acid] here?
**A.** < 31.6 nM

**Q.** And the pEC50 [2]?
**A.** 8.2

**Q.** And the Emax [2]?
**A.** 128%

**Q.** Which results are given for CS(=O)(=O)NC(=O)CCc1ccc(N2C[C@@H]3C[C@H]2C[C@H]3OCc2c(-c3c(F)cccc3Cl)noc2C2CC2)c(F)c1 [Compound I-239, 3-(4-((1S,4S,5R)-5-((3-(2-chloro-6-fluorophenyl)-5-cyclopropylisoxazol-4-yl)methoxy)-2-azabicyclo[2.2.1]heptan-2-yl)-3-fluorophenyl)-N-(methylsulfonyl)propanamide]?
**A.** Emax [1]: 94%; EC50 [1]: 7.94 nM; pEC50 [2]: 8.2; Emax [2]: 176%

**Q.** O=C(O)c1cc(C2CCOCC2)c2nc(N3C(=O)[C@@H]4C[C@H]3C[C@H]4OCc3c(-c4c(Cl)cccc4Cl)noc3C3CC3)sc2c1 [Compound I-298, 2-((1S,4R,5R)-5-((5-cyclopropyl-3-(2,6-dichlorophenyl)isoxazol-4-yl)methoxy)-3-oxo-2-azabicyclo[2.2.1]heptan-2-yl)-4-(tetrahydro-2H-pyran-4-yl)benzo[d]thiazole-6-carboxylic acid] was tested. Which Emax [1] did it give?
**A.** 112%

**Q.** And the EC50 [1]?
**A.** 7.94 nM

**Q.** And the Emax [2]?
**A.** 133%
